Data taken from PubChem BioAssay AID1259407 (Chemical Carcinogenesis Research Information System (CCRIS), 2018).
“Also recorded” adds a separate entry of the source. The source made the active and inactive calls. No rule for the calls is given here.

Test system: CCRIS mutagenicity, Ames/micronucleus/aberration tests
Assay: CCRIS mutagenicity studies

Q: With `COc1cc2c(c3oc(=O)c4c(c13)CCC4=O)[C@@H]1C=CO[C@@H]1O2` as the compound, how does the mutagenic call (Test System: AMES SALMONELLA TYPHIMURIUM, Strain/Indicator: TA100, Metabolic Activation: MOUSE, LIVER, MICROSOMES, BENZO[E]PYRENE AND TCDD, Method: STANDARD PLATE) read?
A: active; positive

Q: And the mutagenic call (Test System: AMES SALMONELLA TYPHIMURIUM, Strain/Indicator: TA100, Metabolic Activation: RABBIT, LUNG, CLARA CELL-RICH FRACTION, Method: PREINCUBATION)?
A: active; positive

Q: And the mutagenic call (Test System: AMES SALMONELLA TYPHIMURIUM, Strain/Indicator: TA100, Metabolic Activation: RAT LIVER S-9, DELOR 103, Method: STANDARD PLATE)?
A: active; positive

Q: What about the mutagenic call (Test System: AMES SALMONELLA TYPHIMURIUM, Strain/Indicator: TA100, Metabolic Activation: RAT LIVER S-9, DELOREM 103, Method: STANDARD PLATE) of the same compound?
A: active; positive

Q: And the mutagenic call (Test System: AMES SALMONELLA TYPHIMURIUM, Strain/Indicator: TA100, Metabolic Activation: RAT, LIVER, MICROSOMES, PHENOBARBITAL, Method: STANDARD PLATE)?
A: active; positive

Q: What about the mutagenic call (Test System: AMES SALMONELLA TYPHIMURIUM, Strain/Indicator: TA100, Metabolic Activation: RAT, LIVER, S-9, ACRYLAMIDE, Method: STANDARD PLATE) of the same compound?
A: active; positive

Q: What about the mutagenic call (Test System: AMES SALMONELLA TYPHIMURIUM, Strain/Indicator: TA100, Metabolic Activation: RAT, LIVER, S-9, AROCLOR 1254, Method: MICROSUSPENSION) of the same compound?
A: active; positive

Q: What about the mutagenic call (Test System: AMES SALMONELLA TYPHIMURIUM, Strain/Indicator: TA100, Metabolic Activation: RAT, LIVER, S-9, AROCLOR 1254, Method: PREINCUBATION) of the same compound?
A: active; positive

Q: What about the mutagenic call (Test System: AMES SALMONELLA TYPHIMURIUM, Strain/Indicator: TA100, Metabolic Activation: RAT, LIVER, S-9, AROCLOR 1254, Method: STANDARD PLATE) of the same compound?
A: active; positive

Q: And the mutagenic call (Test System: AMES SALMONELLA TYPHIMURIUM, Strain/Indicator: TA100, Metabolic Activation: RAT, LIVER, S-9, PHENOBARBITAL, Method: PREINCUBATION)?
A: active; positive

Q: And the mutagenic call (Test System: AMES SALMONELLA TYPHIMURIUM, Strain/Indicator: TA100, Metabolic Activation: RAT, LIVER, S-9, PHENOBARBITAL, Method: STANDARD PLATE)?
A: active; positive

Q: What about the mutagenic call (Test System: AMES SALMONELLA TYPHIMURIUM, Strain/Indicator: TA1538, Metabolic Activation: RAT, LIVER, S-9, AROCLOR 1254, Method: STANDARD PLATE) of the same compound?
A: active; positive

Q: What about the mutagenic call (Test System: Ames Salmonella typhimurium, Strain/Indicator: TA98, Metabolic Activation: Rat, Liver, S-9, Aroclor 1254, Method: Preincubation) of the same compound?
A: active; positive (decrease in mutagenicity when 0.99-15.90 mg/plate of chloroform extrac; also recorded: active; positive (decrease in mutagenicity when 0.46-7.30 mg/plate of methanol extract o

Q: And the mutagenic call (Test System: Ames Salmonella typhimurium, Strain/Indicator: TA100, Metabolic Activation: Rat, Liver, S-9, Aroclor 1254, Method: Preincubation)?
A: active; positive (decrease in mutagenicity when 0.46-7.30 mg/plate of methanol extract o

Q: What about the mutagenic call (Test System: CHINESE HAMSTER V-79, Strain/Indicator: V-79/6-THIOGUANINE, Metabolic Activation: NONE, Method: STANDARD PLATE) of the same compound?
A: inactive; negative

Q: What about the mutagenic call (Test System: CHINESE HAMSTER V-79, Strain/Indicator: V-79/6-THIOGUANINE, Metabolic Activation: RAT, HEPATOCYTES, BUTYLATED HYDROXYANISOLE, Method: STANDARD PLATE) of the same compound?
A: active; positive

Q: What about the mutagenic call (Test System: CHINESE HAMSTER V-79, Strain/Indicator: V-79/6-THIOGUANINE, Metabolic Activation: RAT, HEPATOCYTES, Method: STANDARD PLATE) of the same compound?
A: active; positive

Q: What about the mutagenic call (Test System: CHINESE HAMSTER V-79, Strain/Indicator: V-79/6-THIOGUANINE, Metabolic Activation: RAT, LIVER, S-9, PHENOBARBITAL, Method: STANDARD PLATE) of the same compound?
A: active; positive

Q: What about the mutagenic call (Test System: CHINESE HAMSTER V-79, Strain/Indicator: V-79/OUABAIN, Metabolic Activation: CELL-MEDIATED, Method: STANDARD PLATE) of the same compound?
A: active; positive

Q: And the mutagenic call (Test System: CHINESE HAMSTER V-79, Strain/Indicator: V-79/OUABAIN, Metabolic Activation: NONE, Method: STANDARD PLATE)?
A: inactive; negative

Q: And the mutagenic call (Test System: CHINESE HAMSTER V-79, Strain/Indicator: V-79/OUABAIN, Metabolic Activation: RAT, HEPATOCYTES, BUTYLATED HYDROXYANISOLE, Method: STANDARD PLATE)?
A: active; positive

Q: What about the mutagenic call (Test System: CHINESE HAMSTER V-79, Strain/Indicator: V-79/OUABAIN, Metabolic Activation: RAT, HEPATOCYTES, Method: STANDARD PLATE) of the same compound?
A: active; positive

Q: What about the mutagenic call (Test System: UDS GUINEA PIG HEPATOCYTES, Strain/Indicator: THY INCORP, Metabolic Activation: NONE, Method: AUTORADIOGRAPHY) of the same compound?
A: active; positive

Q: What about the mutagenic call (Test System: UDS HUMAN CELLS, Strain/Indicator: THY INCORP (NON-S-PHASE), Metabolic Activation: RAT, LIVER, S-9, PHENOBARBITAL, Method: LIQUID SCINTILLATION COUNTING) of the same compound?
A: active; positive

Q: What about the mutagenic call (Test System: UDS HUMAN FIBROBLASTS, Strain/Indicator: THY INCORP (NON-S-PHASE), Metabolic Activation: MOUSE, LIVER, S-9, Method: AUTORADIOGRAPHY) of the same compound?
A: active; positive

Q: And the mutagenic call (Test System: UDS HUMAN FIBROBLASTS, Strain/Indicator: THY INCORP (NON-S-PHASE), Metabolic Activation: NONE, Method: AUTORADIOGRAPHY)?
A: active; positive

Q: And the mutagenic call (Test System: UDS HUMAN FIBROBLASTS, Strain/Indicator: THY INCORP (NON-S-PHASE), Metabolic Activation: NONE, Method: LIQUID SCINTILLATION COUNTING)?
A: active; positive

Q: And the mutagenic call (Test System: UDS HUMAN HEPATOCYTES, Strain/Indicator: THY INCORP, Metabolic Activation: NONE, Method: AUTORADIOGRAPHY)?
A: active; positive

Q: What about the mutagenic call (Test System: UDS MONKEY HEPATOCYTES, Strain/Indicator: THY INCORP, Metabolic Activation: NONE, Method: AUTORADIOGRAPHY) of the same compound?
A: active; positive

Q: And the mutagenic call (Test System: UDS RAT HEPATOCYTES, Strain/Indicator: BROMODEOXYURIDINE INCORP, Metabolic Activation: NONE, Method: FLOW CYTOMETRIC ANALYSIS)?
A: active; positive

Q: And the mutagenic call (Test System: UDS RAT HEPATOCYTES, Strain/Indicator: THY INCORP, Metabolic Activation: AROCLOR 1254, Method: AUTORADIOGRAPHY)?
A: active; positive

Q: And the mutagenic call (Test System: UDS RAT HEPATOCYTES, Strain/Indicator: THY INCORP, Metabolic Activation: NONE, Method: AUTORADIOGRAPHY)?
A: active; positive

Q: What about the mutagenic call (Test System: UDS RAT HEPATOCYTES, Strain/Indicator: THY INCORP, Metabolic Activation: NONE, Method: LIQUID SCINTILLATION COUNTING) of the same compound?
A: active; positive

Q: What about the mutagenic call (Test System: UDS RODENT HEPATOCYTES, Strain/Indicator: THY INCORP (NON-S-PHASE), Method: AUTORADIOGRAPHY) of the same compound?
A: active; positive

Q: And the mutagenic call (Test System: UDS RODENT HEPATOCYTES, Strain/Indicator: THY INCORP (NON-S-PHASE), Method: LIQUID SCINTILLATION COUNTING)?
A: active; positive

Q: What about the mutagenic call (Test System: UDS RODENT PRIMARY CELLS, Strain/Indicator: THY INCORP (NON-S-PHASE), Metabolic Activation: NONE, Method: AUTORADIOGRAPHY) of the same compound?
A: active; positive
